Like-named read-outs stand apart in the source and are kept apart here.
Columns and labels:
[1] = target: T1, Vibrio cholerae neuraminidase (Vibrio cholerae serotype O1, UniProt P0C6E9); assay: biochemical; type: biochemical
T1 construct: purchased Sigma

[2] = target: Clostridium perfringens neuraminidase; type: biochemical; conditions: for IC50: pH 6.5, read-out: Solution phase IC50, Clostridium perfringens
[3] = target: T2, Salmonella typhimurium neuraminidase (Salmonella typhimurium, UniProt P29768); assay: biochemical; type: biochemical
T2 construct: purchased Sigma

[4] = target: T2, Salmonella typhimurium neuraminidase; conditions: value in brackets marked lit; read-out: Solution phase IC50, Salmonella typhimurium, literature value; cited from earlier work
α2,6-sialyltransferase [5] = target: T3, α2,6-sialyltransferase (Rattus norvegicus, UniProt P13721); assay: Sialyltransferase competitive assay; type: biochemical; design: purchased Calbiochem
T3 sequence (P13721 1-403): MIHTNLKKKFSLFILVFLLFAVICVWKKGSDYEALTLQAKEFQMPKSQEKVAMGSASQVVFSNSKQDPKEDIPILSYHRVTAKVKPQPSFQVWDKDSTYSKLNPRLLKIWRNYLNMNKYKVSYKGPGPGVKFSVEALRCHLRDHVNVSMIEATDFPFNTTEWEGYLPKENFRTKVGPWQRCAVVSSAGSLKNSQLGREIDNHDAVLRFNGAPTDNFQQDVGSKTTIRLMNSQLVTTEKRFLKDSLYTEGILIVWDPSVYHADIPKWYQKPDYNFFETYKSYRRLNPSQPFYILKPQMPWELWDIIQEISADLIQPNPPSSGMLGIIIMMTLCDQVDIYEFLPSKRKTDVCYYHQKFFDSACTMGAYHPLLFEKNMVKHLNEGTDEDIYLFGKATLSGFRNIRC

α2,6-sialyltransferase [6] = target: T3, α2,6-sialyltransferase; conditions: read-out: KM value; literature (Gross et al. 1989); cited from earlier work
α2,3-sialyltransferase = assay: Substrate recognition by sialyltransferase (FRET donor/acceptor); type: biochemical; conditions: acceptor 0.2 mM, donor 0.1 mM, sialyltransferase 0.2 mU, FIG. 15
α2,6-sialyltransferase [7] = target: T3, α2,6-sialyltransferase; assay: as above; type: biochemical; design: purchased Calbiochem; conditions: acceptor 0.2 mM, donor 0.1 mM, sialyltransferase 0.2 mU, FIG. 15

T2 sequence (P29768 whole entry): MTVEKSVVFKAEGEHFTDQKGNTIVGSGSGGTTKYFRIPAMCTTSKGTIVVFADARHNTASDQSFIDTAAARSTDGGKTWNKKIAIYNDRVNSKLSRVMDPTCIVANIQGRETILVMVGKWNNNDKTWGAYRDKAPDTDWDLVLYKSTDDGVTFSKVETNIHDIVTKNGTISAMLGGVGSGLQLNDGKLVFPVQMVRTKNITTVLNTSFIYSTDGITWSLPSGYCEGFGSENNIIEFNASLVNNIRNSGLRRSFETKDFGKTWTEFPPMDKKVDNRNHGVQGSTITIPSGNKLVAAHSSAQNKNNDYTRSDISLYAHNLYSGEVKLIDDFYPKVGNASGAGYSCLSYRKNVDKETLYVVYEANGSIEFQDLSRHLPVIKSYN
T1 sequence (P0C6E9 25-781 limits assumed): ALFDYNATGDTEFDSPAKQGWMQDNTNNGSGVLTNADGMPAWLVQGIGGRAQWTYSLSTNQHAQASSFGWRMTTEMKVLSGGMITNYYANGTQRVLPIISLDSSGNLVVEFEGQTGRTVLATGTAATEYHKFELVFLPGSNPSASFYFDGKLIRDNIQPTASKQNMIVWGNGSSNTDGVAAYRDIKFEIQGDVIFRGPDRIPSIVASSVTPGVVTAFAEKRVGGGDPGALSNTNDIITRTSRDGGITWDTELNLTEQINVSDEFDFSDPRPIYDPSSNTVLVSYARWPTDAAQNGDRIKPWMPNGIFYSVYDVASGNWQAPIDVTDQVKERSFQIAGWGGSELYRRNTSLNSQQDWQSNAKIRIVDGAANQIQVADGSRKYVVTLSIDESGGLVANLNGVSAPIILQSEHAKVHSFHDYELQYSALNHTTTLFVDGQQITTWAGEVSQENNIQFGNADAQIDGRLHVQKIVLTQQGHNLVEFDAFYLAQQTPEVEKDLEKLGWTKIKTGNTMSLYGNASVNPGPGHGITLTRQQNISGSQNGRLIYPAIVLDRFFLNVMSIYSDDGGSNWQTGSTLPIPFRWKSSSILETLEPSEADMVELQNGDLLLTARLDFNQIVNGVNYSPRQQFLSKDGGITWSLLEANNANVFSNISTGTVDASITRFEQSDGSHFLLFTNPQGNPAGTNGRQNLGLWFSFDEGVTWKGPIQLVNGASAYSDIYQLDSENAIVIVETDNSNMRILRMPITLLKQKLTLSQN

| Compound | IC50 [1] [µM] | IC50 [2] [µM] | IC50 [3] [µM] | other results |
| --- | --- | --- | --- | --- |
| CC(=O)NC1C(O)CC(O)(C(=O)O)OC1[C@H](O)[C@H](O)CO (stereo partly shown) | > 2000 | > 2000 | > 2000 | – |
| CC(=O)NC1C(N)C=C(C(=O)O)OC1[C@H](O)[C@H](O)CO (stereo partly shown) | > 2000 | > 2000 | > 2000 | – |
| CC1=NC2C(O)C=C(C(=O)O)OC2C(CC(=O)N[C@@H](C(N)=O)C2CCCCC2)O1 (stereo partly shown) | > 2000 | 1600 | > 2000 | – |
| CC(=O)NC1C(NC(=N)N)C=C(C(=O)O)OC1[C@H](OC(N)=O)[C@H](O)CO (stereo partly shown) | 250 | > 2000 | > 2000 | – |
| CC(=O)NC1C(O)C=C(C(=O)O)OC1[C@H](O)[C@H](O)CO (stereo partly shown) [2-deoxy-2,3-dehydro-N-acetylneuraminic acid] | – | 4 | 310 | Inhibition of Vibrio cholerae neuraminidase [1]: good inhibitor; IC50 [4]: 350 µM; Inhibition of Clostridium perfringens neuraminidase [2]: good inhibitor; Inhibition of Salmonella typhimurium neuraminidase [3]: good inhibitor |
| CC(=O)NC1C(NC(=N)N)C=C(C(=O)O)OC1[C@H](O)[C@H](O)CO (stereo partly shown) [4-guanidino-2-deoxy-2,3-didehydro-N-acetylneuraminic acid] | 200 | – | > 2000 | Inhibition of Vibrio cholerae neuraminidase [1]: inhibitor |
| CC(=O)NC1C(O)CC(OP(=O)(O)OC[C@H]2O[C@@H](n3ccc(N)nc3=O)[C@@H](O)C2O)(C(=O)O)OC1[C@H](O)[C@H](O)CO (stereo partly shown) [CMP-Neu5Ac, cytidine monophosphate N-acetylneuraminic acid] | – | – | – | IC50 (α2,6-sialyltransferase [5]): 85 µM; Km (α2,6-sialyltransferase [6]): 45 µM |
| NC(=O)C(Cc1ccc(O)c([N+](=O)[O-])c1)NC(=O)Cc1cc(=O)oc2cc(O)ccc12 (stereo not shown) [Compound 41, 3-(4-Hydroxy-3-nitro-phenyl)-2-[2-(7-hydroxy-2-oxo-2H-chromen-4-yl)-acetylamino]-propionamide] | – | – | – | melting point: 203 °C |
| NC(=O)C(Cc1ccc(O)c([N+](=O)[O-])c1)NC(=O)CCC(=O)NCCOCCOCCNC(=O)Cc1cc(=O)oc2cc(O)ccc12 (stereo not shown) [Compound 42, N-[1-Carbamoyl-2-(4-hydroxy-3-nitro-phenyl)-ethyl]-N′-[2-(2-{2-[2-(7-hydroxy-2-oxo-2H-chromen-4-yl)-acetylamino]-ethoxy}-ethoxy)-ethyl]-succinamide] | – | – | – | melting point: 115 °C |
| N[C@@H](Cc1ccc(O)c([N+](=O)[O-])c1)C(=O)NCCO[C@@H]1O[C@H](CO)[C@@H](O[C@@H]2O[C@H](CO)[C@H](O)[C@H](O)[C@H]2O)[C@H](O)[C@H]1O [acceptor 64, 2-(3-Nitro-L-tyrosyl-amide)ethyl β-D-galactopyransyl-(1→4)-O-β-D-glucopyranoside] | – | – | – | Substrate recognition by α2,3-sialyltransferase (α2,3-sialyltransferase): poor substrate recognition; Substrate recognition by α2,6-sialyltransferase (α2,6-sialyltransferase [7]): poor substrate recognition |
| CC(=O)N[C@H]1[C@H](OCCNC(=O)[C@@H](N)Cc2ccc(O)c([N+](=O)[O-])c2)O[C@H](CO)[C@@H](O[C@@H]2O[C@H](CO)[C@H](O)[C@H](O)[C@H]2O)[C@@H]1O [acceptor 69, 2-(3-Nitro-L-tyrosyl-amide)ethyl β-D-galactopyransyl-(1→4)-O-2-acetamido-2-deoxy-β-D-glucopyranoside] | – | – | – | Substrate recognition by α2,3-sialyltransferase (α2,3-sialyltransferase): good substrates; Substrate recognition by α2,6-sialyltransferase (α2,6-sialyltransferase [7]): good substrates |
| CMP-5-(7-hydroxy-4-coumarinyl-acetamido)-NeuAc [donor 55] | – | – | – | Substrate recognition by α2,3-sialyltransferase (α2,3-sialyltransferase): good substrates; Substrate recognition by α2,6-sialyltransferase (α2,6-sialyltransferase [7]): good substrates |

— patent US7527934B2, “Labeled substrate conjugates for identifying enzyme inhibitors” (priority 2004, dated 2009)
